Measured values: ChEMBL document CHEMBL1137505, “Direct diazo-transfer reaction on beta-lactam: synthesis and preliminary biological activities of 6-triazolylpenicillanic acids” (2007)
≈ marks a conversion by molar mass, not a printed value.

How the values were obtained:
Type in all cases: functional
Streptococcus pneumoniae = experiment: Antibacterial activity against Streptococcus pneumoniae ATCC 49619
Bacillus anthracis = experiment: Antibacterial activity against Bacillus anthracis AMES
Escherichia coli = experiment: Antibacterial activity against Escherichia coli ATCC 25922
Staphylococcus aureus = experiment: Antibacterial activity against Staphylococcus aureus ATCC 29213

Row | Compound | MIC (Streptococcus pneumoniae) | MIC (Bacillus anthracis) | MIC (Escherichia coli) | MIC (Staphylococcus aureus)
1 | CC1(C)S[C@@H]2[C@H](n3cc(-c4ccccc4-c4ccccc4)nn3)C(=O)N2[C@H]1C(=O)O | > 8 µg/mL | > 8 µg/mL | > 8 µg/mL | > 8 µg/mL
2 | CC1(C)S[C@@H]2[C@H](n3cc(C(O)c4ccc(-c5ccncc5)cc4)nn3)C(=O)N2[C@H]1C(=O)[O-].[Na+] (stereo partly drawn) | ≥ 8 µg/mL | ≥ 8 µg/mL | > 8 µg/mL | > 8 µg/mL
3 | CC1(C)S[C@@H]2[C@H](n3cc(C(O)c4ccccc4)nn3)C(=O)N2[C@H]1C(=O)O (stereo partly drawn) | > 8 µg/mL | > 8 µg/mL | > 8 µg/mL | > 8 µg/mL
4 | CC1(C)S[C@@H]2[C@H](n3cc(-c4ccc(-c5ccccc5)cc4)nn3)C(=O)N2[C@H]1C(=O)O | ≥ 8 µg/mL | > 8 µg/mL | > 8 µg/mL | > 8 µg/mL
5 | CC1(C)S[C@@H]2[C@H](n3cc(-c4ccc(-c5ccncc5)cc4)nn3)C(=O)N2[C@H]1C(=O)O | > 8 µg/mL | > 8 µg/mL | > 8 µg/mL | > 8 µg/mL
6 | CC1(C)S[C@@H]2[C@H](n3cc(Cc4ccccc4)nn3)C(=O)N2[C@H]1C(=O)O | 4 µg/mL (≈ 11.2 µM) | > 8 µg/mL | > 8 µg/mL | > 8 µg/mL
7 | COc1cccc(OC)c1-c1cn([C@@H]2C(=O)N3[C@@H]2SC(C)(C)[C@@H]3C(=O)O)nn1 | > 8 µg/mL | > 8 µg/mL | > 8 µg/mL | > 8 µg/mL
8 | CC1(C)S[C@@H]2[C@H](n3cc(-c4cccnc4)nn3)C(=O)N2[C@H]1C(=O)O | > 8 µg/mL | > 8 µg/mL | > 8 µg/mL | > 8 µg/mL
9 | CC1(C)S[C@@H]2[C@H](n3cc(-c4ccccn4)nn3)C(=O)N2[C@H]1C(=O)O | > 8 µg/mL | > 8 µg/mL | > 8 µg/mL | > 8 µg/mL
10 | CC1(C)S[C@@H]2[C@H](n3cc(-c4ccccc4)nn3)C(=O)N2[C@H]1C(=O)O | 4 µg/mL (≈ 11.6 µM) | > 8 µg/mL | > 8 µg/mL | > 8 µg/mL
11 | CC1(C)S[C@@H]2[C@H](n3cc(-c4cccc(-c5ccccc5)c4)nn3)C(=O)N2[C@H]1C(=O)O | > 8 µg/mL | > 8 µg/mL | > 8 µg/mL | > 8 µg/mL
12 | CC1(C)S[C@@H]2[C@H](n3cc(-c4ccncc4)nn3)C(=O)N2[C@H]1C(=O)O | > 8 µg/mL | > 8 µg/mL | > 8 µg/mL | > 8 µg/mL
13 | CC1(C)S[C@@H]2[C@H](n3cc(-c4cccs4)nn3)C(=O)N2[C@H]1C(=O)O | 8 µg/mL (≈ 22.8 µM) | > 8 µg/mL | > 8 µg/mL | > 8 µg/mL
14 | CC1(C)S[C@@H]2[C@H](NC(=O)Cc3ccccc3)C(=O)N2[C@H]1C(=O)O [PENICILLIN G] | – | ≤ 0.125 µg/mL | > 2 µg/mL | 1 µg/mL (≈ 2.99 µM)
15 | CCN1CCN(C(=O)N[C@@H](C(=O)N[C@@H]2C(=O)N3[C@@H]2SC(C)(C)[C@@H]3C(=O)O)c2ccccc2)C(=O)C1=O [PIPERACILLIN] | – | 1 µg/mL (≈ 1.93 µM) | 4 µg/mL (≈ 7.73 µM) | 2 µg/mL (≈ 3.86 µM)
